Results on 3 compounds are retold here after patent US20160331771A1, “Treatment of Hyperproliferative Disorders Using Cardiac Glycosides” (EpicentRx, Inc., priority 2008, published 2016).

Structures are written as SMILES.

Data set [1] can be described thus: Example 2: two siblings given digoxin daily. As to conditions: for improvement in pain levels and functionality: both patients. Type of data set: in vivo, human. The protocol: Two siblings with severe rheumatoid arthritis characterized by progressive pain, stiffness and swelling of joints in spite of treatment with NSAIDs, narcotics, and immunosuppressants were given 0.125 mg of digoxin daily. No response was noted until the 5th day of treatment at which time both patients reported about a 10% improvement in pain levels and functionality, 2 weeks later the dose of digoxin was doubled to 0.25 mg and the patients both noted a proportional improvement in pain levels and functionality to 20%.

Assay in data set [2]: not given
The source holds these as a separate data set.

For data set [3] the following is noted: when used alone; cited from earlier work.

Regarding `CN(Cc1cnc2nc(N)nc(N)c2n1)c1ccc(C(=O)N[C@@H](CCC(=O)O)C(=O)O)cc1` [Methotrexate], where the note is “Methotrexate 5-10 mg q week with calcipotriene, phototherapy and NSAIDs, prior 4 months”, the “effectiveness of prior therapy” value is given as “moderately effective”.

`C[C@H]1O[C@@H](O[C@H]2[C@@H](O)C[C@H](O[C@H]3[C@@H](O)C[C@H](O[C@H]4CC[C@@]5(C)[C@H](CC[C@@H]6[C@@H]5C[C@@H](O)[C@]5(C)[C@@H](C7=CC(=O)OC7)CC[C@]65O)C4)O[C@@H]3C)O[C@@H]2C)C[C@H](O)[C@@H]1O` [digoxin, 4-[(3S,5R,8R,9S,10S,12R,13S,14S,)-3-[(2S,4S,5R,6R)-5-[(2S,4S,5R,6R)-5-[(2S,4S,5R,6R)-4,5-dihydroxy-6-methyl-oxan-2-yl]oxy-4-hydroxy-6-methyl-oxan-2-yl]oxy-4-hydroxy-6-methyl-oxan-2-yl]oxy-12,14-dihydroxy-10,13-dimethyl-1,2,3,4,5,6,7,8,9,11,12,15,16,17-tetradecahydrocyclopenta[a]phenanthren-17-yl]-5H-furan-2-one]: the “improvement in pain levels and functionality” value is ~10% in data set [1] (0.125 mg of digoxin daily, 5th day of treatment) and 20% in data set [1] (dose doubled to 0.25 mg 2 weeks later). Moreover, the side effects result in data set [1] (digoxin 0.125 mg then 0.25 mg) is listed as “No side effects”. Moreover, in data set [2] (0.125 mg of digoxin, within 3 days), the “regression of wound area” value is on record as “about 20%”. Besides, the joint pain entry (for one month, next monthly visit) is given as “abated”. Further, the “psoriasis at follow up” value (remained on 0.125 mg of digoxin, 2 months later, elbows and ankles, with return of joint pain) is “mild recrudescence”. In data set [3], the “plasma digoxin concentration at which adverse reactions are rare” value is < 0.8 µg/L.

Take `OC(Cn1cncn1)(Cn1cncn1)c1ccc(F)cc1F` [fluconazole]: the “change in the affected area” value in data set [2] (1 week of treatment, before digoxin) was “no change”.
